Measurements published in the supplement of paper PMC10307832.

Assays:
Assay in all cases: relative viability (nuclei count vs DMSO), 5 days (fraction); higher = more cells survive
Fedratinib + Palbociclib = compound: Cc1cnc(Nc2ccc(OCCN3CCCC3)cc2)nc1Nc1cccc(S(=O)(=O)NC(C)(C)C)c1 [Fedratinib] + CC(=O)c1c(C)c2cnc(Nc3ccc(N4CCNCC4)cn3)nc2n(C2CCCC2)c1=O [Palbociclib] (partner 0.5 µM)
Procedure, shortened: (§1)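 Lung cancer cell lines were pin-tool dosed in 1536-well plates on the day after seeding, with either a lone drug or a fixed anchor-drug dose plus five library-drug doses (not always all listed) in √10 steps. Nuclei were counted on 4× images after 5 days. Relative viability is the ratio of treated-well to vehicle-well nuclei counts, with each value a median of duplicate plates.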

Fedratinib + Dasatinib = compound: Cc1cnc(Nc2ccc(OCCN3CCCC3)cc2)nc1Nc1cccc(S(=O)(=O)NC(C)(C)C)c1 [Fedratinib] + Cc1nc(Nc2ncc(C(=O)Nc3c(C)cccc3Cl)s2)cc(N2CCN(CCO)CC2)n1 [Dasatinib] (partner 0.075 µM)
Procedure, shortened: as §1

GW-2580 + Linsitinib = compound: COC1=CC=C(C=C1)COC2=C(C=C(C=C2)CC3=CN=C(N=C3N)N)OC [GW-2580] + C[C@]1(O)C[C@@H](c2nc(-c3ccc4ccc(-c5ccccc5)nc4c3)c3c(N)nccn32)C1 [Linsitinib] (partner 1 µM)
Procedure, shortened: as §1

GW-2580 + Palbociclib = compound: COC1=CC=C(C=C1)COC2=C(C=C(C=C2)CC3=CN=C(N=C3N)N)OC [GW-2580] + CC(=O)c1c(C)c2cnc(Nc3ccc(N4CCNCC4)cn3)nc2n(C2CCCC2)c1=O [Palbociclib] (partner 0.5 µM)
Procedure, shortened: as §1

GW-2580 + Bortezomib = compound: COC1=CC=C(C=C1)COC2=C(C=C(C=C2)CC3=CN=C(N=C3N)N)OC [GW-2580] + CC(C)C[C@H](NC(=O)[C@H](Cc1ccccc1)NC(=O)c1cnccn1)B(O)O [Bortezomib] (partner 0.002 µM)
Procedure, shortened: as §1

| Cell Line | relative viability (Fedratinib + Palbociclib; first compound 0.1 µM) | relative viability (Fedratinib + Palbociclib; first compound 0.3162 µM) | relative viability (Fedratinib + Palbociclib; first compound 1 µM) | relative viability (Fedratinib + Dasatinib; first compound 0.1 µM) | relative viability (Fedratinib + Dasatinib; first compound 0.3162 µM) | relative viability (Fedratinib + Dasatinib; first compound 1 µM) | relative viability (GW-2580 + Linsitinib; first compound 0.08 µM) | relative viability (GW-2580 + Linsitinib; first compound 0.8 µM) | relative viability (GW-2580 + Linsitinib; first compound 2.53 µM) | relative viability (GW-2580 + Linsitinib; first compound 8 µM) | relative viability (GW-2580 + Palbociclib; first compound 0.08 µM) | relative viability (GW-2580 + Palbociclib; first compound 0.8 µM) | relative viability (GW-2580 + Palbociclib; first compound 2.53 µM) | relative viability (GW-2580 + Palbociclib; first compound 8 µM) | relative viability (GW-2580 + Bortezomib; first compound 0.08 µM) | relative viability (GW-2580 + Bortezomib; first compound 0.8 µM) | relative viability (GW-2580 + Bortezomib; first compound 2.53 µM) | relative viability (GW-2580 + Bortezomib; first compound 8 µM) |
| --- | --- | --- | --- | --- | --- | --- | --- | --- | --- | --- | --- | --- | --- | --- | --- | --- | --- | --- |
| LU99A | 0.469 | 0.382 | 0.392 | 0.494 | 0.508 | 0.42 | 0.749 | 0.57 | 0.427 | 0.517 | 0.476 | 0.444 | 0.356 | 0.376 | 1.1 | 1.15 | 0.986 | 1.17 |
| LXF-289 | 0.611 | 0.559 | 0.558 | 0.249 | 0.158 | 0.203 | 1.02 | 0.992 | 0.997 | 0.858 | 0.616 | 0.64 | 0.599 | 0.602 | 1 | 1.06 | 0.93 | 0.916 |
| NCI-H23 | 0.555 | 0.497 | 0.4 | 0.805 | 0.415 | 0.911 | 0.728 | 0.626 | 0.524 | 0.517 | 0.529 | 0.549 | 0.469 | 0.545 | 0.979 | 0.988 | 1.12 | 1.04 |
| NCI-H322M | 0.487 | 0.473 | 0.454 | 0.254 | 0.24 | 0.222 | 1.01 | 0.958 | 0.857 | 1.05 | 0.5 | 0.453 | 0.476 | 0.29 | 1.29 | 1.4 | 1.31 | 1.43 |
| NCI-H441 | 0.195 | 0.176 | 0.204 | 0.618 | 0.314 | 0.493 | 0.425 | 0.763 | 0.351 | 0.625 | 0.228 | 0.212 | 0.206 | 0.2 | 0.608 | 0.254 | 0.288 | 1.13 |
| NCI-H460 | 0.163 | 0.142 | 0.06 | 0.496 | 0.415 | 0.329 | 1.04 | 1.17 | 0.604 | 0.795 | 0.147 | 0.339 | 0.146 | 0.248 | 1.29 | 1.27 | 1.03 | 1.19 |
| NCI-H520 | 0.149 | 0.214 | 0.164 | 0.18 | 0.205 | 0.196 | 1.03 | 1.18 | 1.16 | 0.985 | 0.228 | 0.206 | 0.228 | 0.208 | 0.58 | 0.923 | 0.602 | 0.672 |
| NCI-H647 | 0.346 | 0.362 | 0.364 | 0.21 | 0.203 | 0.142 | 1.39 | 1.39 | 1.09 | 1.33 | 0.384 | 0.398 | 0.41 | 0.317 | 1.1 | 0.994 | 0.756 | 1.09 |
| NCI-H650 | 0.285 | 0.345 | 0.324 | 0.378 | 0.434 | 0.394 | 0.94 | 1.02 | 0.547 | 1.17 | 0.314 | 0.373 | 0.28 | 0.317 | 0.807 | 1.06 | 0.658 | 0.845 |
| NCI-H661 | 0.397 | 0.401 | 0.359 | 0.83 | 0.912 | 0.612 | 0.493 | 0.615 | 0.419 | 0.439 | 0.414 | 0.434 | 0.388 | 0.326 | 0.741 | 0.752 | 0.747 | 0.676 |
| NCI-H727 | 0.483 | 0.652 | 0.624 | 0.296 | 0.299 | 0.392 | 0.241 | 0.298 | 0.226 | 0.284 | 0.576 | 0.625 | 0.606 | 0.54 | 1.01 | 1.18 | 1.35 | 0.835 |
| NCI-H838 | 0.197 | 0.228 | 0.164 | 0.281 | 0.29 | 0.239 | 1.14 | 1.19 | 1.01 | 1.06 | 0.228 | 0.25 | 0.2 | 0.251 | 0.943 | 0.831 | 0.691 | 1.02 |
| NCI-H1355 | 0.412 | 0.396 | 0.385 | 0.67 | 0.75 | 0.374 | 0.823 | 0.884 | 0.694 | 0.809 | 0.407 | 0.439 | 0.337 | 0.322 | 1.24 | 1.38 | 1.06 | 1.16 |
| NCI-H1437 | 0.264 | 0.308 | 0.293 | 0.301 | 0.409 | 0.329 | 1.08 | 1.3 | 0.942 | 0.728 | 0.307 | 0.338 | 0.297 | 0.262 | 0.654 | 0.569 | 0.518 | 0.516 |
| NCI-H1651 | 0.49 | 0.485 | 0.508 | 0.437 | 0.418 | 0.329 | 1.06 | 1.04 | 1 | 0.982 | 0.503 | 0.594 | 0.499 | 0.557 | 0.953 | 1.08 | 0.89 | 0.942 |
| NCI-H1666 | 0.636 | 0.657 | 0.629 | 0.843 | 0.675 | 0.731 | 0.765 | 1.02 | 0.742 | 0.724 | 0.647 | 0.65 | 0.649 | 0.64 | 0.727 | 1.2 | 0.791 | 0.89 |
| NCI-H1734 | 0.415 | 0.344 | 0.334 | 0.455 | 0.464 | 0.4 | 0.899 | 0.839 | 0.895 | 0.911 | 0.364 | 0.432 | 0.37 | 0.311 | 0.976 | 0.995 | 0.775 | 0.967 |
